Test results from the SangsterLogP compilation.

Key:
[1] = method code SF-HPLC, from DOI: 10.1021/js990112s, PMID: 10585226

Row | logP | logP [1] | SMILES
1 | 3.66 |  | [O-][n+]1cc(Cl)nc(-c2ccc(Cl)cc2)c1-c1ccc(Cl)cc1
2 | 4.3 |  | COc1ccc(-c2ncc(Cl)nc2-c2ccc(OC)cc2)cc1
3 | 4.1 |  | Cc1ccc(-c2nccnc2-c2ccc(C)cc2)cc1
4 | 4.22 |  | CCOc1cnc(-c2ccc(OC)cc2)c(-c2ccc(OC)cc2)n1
5 | 2.4 |  | Cc1nc(Cl)c(C)nc1Cl
6 | 3.7 |  | COc1ccc(-c2ncc(C#N)nc2-c2ccc(OC)cc2)cc1
7 | 2.52 |  | N#Cc1ccc(-c2nccnc2-c2ccc(C#N)cc2)cc1
8 | 0.19 |  | Cc1ncc(C)[n+]([O-])c1Cl
9 |  | 2.24 | COc1ccc(-c2cnccn2)cc1
10 | 3.41 |  | Brc1ccc(-c2nccnc2-c2ccc(Br)cc2)cc1
11 | 3.75 |  | Fc1ccc(-c2nccnc2-c2ccc(F)cc2)cc1
12 | 4.94 |  | CCc1nc(-c2ccccc2)cnc1-c1ccccc1
13 | 4.73 |  | CCOc1cnc(-c2ccccc2)c(-c2ccccc2)n1
14 | 3.42 |  | COc1ccc(-c2nccnc2-c2ccc(OC)cc2)cc1
15 | 5.2 |  | COc1ccccc1Cc1cnc(-c2ccccc2)c(-c2ccccc2)n1
16 | 4.47 |  | COc1ccc(-c2ncc(OC)nc2-c2ccc(OC)cc2)cc1

Continued, compound first:

Row | SMILES | logP | logP [1]
17 | COc1ccc(-c2nc(C)c(C)nc2-c2ccc(OC)cc2)cc1 | 4.1 | 
18 | Clc1cnc(-c2ccccc2)c(-c2ccccc2)n1 | 4.05 | 
19 | Cc1c[n+]([O-])c(C)c(Cl)n1 | 0.44 | 
20 | Cc1cnc(-c2ccccc2)c(-c2ccccc2)n1 | 3.52 | 
21 | Cc1nc(Cl)c(C)[n+]([O-])c1Cl | 1.08 | 
22 | Cc1nc(-c2ccccc2)cnc1-c1ccccc1 | 4.28 | 
23 | c1ccc(-c2cnccn2)cc1 |  | 2.07
24 | COc1ccc(-c2ncc(C)nc2-c2ccc(OC)cc2)cc1 | 3.66 | 
25 | CC(C)c1cnc(-c2ccccc2)c(-c2ccccc2)n1 | 4.71 | 
26 | COC(=O)c1cnc(-c2ccc(OC)cc2)c(-c2ccc(OC)cc2)n1 | 3.41 | 
27 | c1ccc(-c2nccnc2-c2ccccc2)cc1 | 3.19 | 
28 | COc1cnc(-c2ccccc2)c(-c2ccccc2)n1 | 4.21 | 
29 | Cc1nc(C)c(-c2ccccc2)nc1-c1ccccc1 | 4.83 | 
